These results are taken from patent US20060159732A1, “Antioxidant wound dressing materials” (priority 2003, published 2006).

A short description of assay [1]: DPPH test (Procedure 1), free radical / antioxidant activity. Conditions: positive control at 10^-4M; percentage reduction of absorbance at 524 nm relative to the control after 4 hours. How it is done: Preferably, the material according to the present invention has a free radical activity, that is to say an antioxidant activity, of at least about 15% in the diphenylpicrylhydrazyl (DPPH) test, measured as percentage reduction in absorbance at 524 nm after 4 hours of a 0.5% w/v dispersion of the polysaccharide in 10^−4M DPPH, as described further hereinbelow in Procedure 1. Preferably the percentage reduction in absorbance in the DPPH test (after correction for any absorbance by the dye) is at least about 25%, more preferably at least about 50%, and most preferably at least about 75%.
The ability of the wound dressing materials to react with and remove oxygen containing free radicals is assessed by the DPPH test described in WO94/13333, the entire content of which is expressly incorporated herein by reference. […]
Briefly, the wound dressing material under test (2.5 mg; 5 mg; & 25 mg sample sizes) was suspended in 2.5 ml of 0.1M pH 7.0 phosphate buffer. […] The samples were assessed by measurement of their light absorbance at 524 nm over 6 hours in comparison with a control, particular attention being paid to the figure after 4 hours. The percentage reduction of absorbance relative to the control after 4 hours gives the DPPH test value, with a reproducibility generally of ±5%. […]
(DPPH is a stable violet radical that fades when it is reduced.)

For assay [2], the system named is Pseudomonas aeruginosa (ATCC 27853 and various PSI strains). Put plainly: Zone of inhibition test (Procedure 2) on Pseudomonas aeruginosa. The assay is classed as cell-based. The conditions noted are these: DSA plates, 37° C., every 24 hours over the test period (72 hours). The procedure: (§1) Six 2 cm×2 cm squares of each sample are cut out in sterile conditions. On day one of the experiment, cultures of both Pseudomonas aeruginosa (ATCC 27853 and various PSI strains) and Staphylococcus aureus (provided by the Dept of Clinical Microbiology and Pathology) are incubated aerobically at 37° C. for 24 hours on Diagnostic Sensitivity Agar (DSA). After 24 hours test samples are each placed on a DSA plate and immediately wetted with 0.5 mls of a buffer solution. Three squares of sample are placed on plates inoculated with Pseudomonas aeruginosa and three are placed on plates inoculated with Staphylococcus aureus. The plates are then incubated at 37° C. for 24 hours. The zone of inhibited growth around the sample is then measured using calipers, and the test sample is placed on a new inoculated DSA plate. A swab test is carried out on the area beneath the sample to determine if the sample is bacteriostatic if not bactericidal by smearing the swab on a DSA plate and incubating it for 24 hours and then examining the growth.

In another assay the test system is Staphylococcus aureus. The assay can be described thus: Zone of inhibition test (Procedure 2) on Staphylococcus aureus. Format: cell-based. The conditions noted are these: DSA plates, 37° C., every 24 hours over the test period (72 hours). How it is done:
as §1

As to `O=C1O[C@H]([C@@H](O)CO)C(O)=C1O` [positive control, Ascorbic acid], the DPPH test value in assay [1] is given as 80-90%.

For the compound `O=[N+]([O-])[O-].[Ag+]` [silver nitrate solution (0.5%), silver nitrate], the zone of inhibition entry (in assay [2]; with Staphylococcus aureus) was “zones of inhibition were observed” throughout.
